Reference: paper PMC8003485, “Synthesis and Evaluation of Novel α-Aminoamides Containing Benzoheterocyclic Moiety for the Treatment of Pain” (Molecules, 2021)
Read-outs that look alike come from different tables or passages of the source.

How the values were obtained:
hNav1.5 = target: T1, hNav1.5 (Homo sapiens, UniProt Q14524); assay: Assay for hNav1.5 inhibition (HEK293 cells stably expressing hNav1.5); type: cell-based
T1 construct: expressed in transfected cells; host or cells: HEK293
Protocol: The inhibition of the compounds to hNav1.5 peak current was performed at room temperature using HEK293 cells that could express hNav1.5 stably. The holding voltage of the membrane was transferred to 0 mV from −120 mV for 50 ms and then restored to −50 mV for 8 s. After that, the membrane potential was renewed to −120 mV for 20 ms, followed by a depolarization to 0 mV for 50 ms. At last, the potential was recovered to the holding voltage −120 mV for 30 ms. This progress was performed every 20 s. The compounds were administrated when the voltage of hNav1.5 was stable. Every concentration was tested for 5 min and all compounds were tested at several concentrations and with multiple cells.

ICR (CD−1) male mice [1] = assay: Formalin test (mouse, phase II paw licking); type: in vivo
mouse [2] = assay: Mouse tail flick assay; type: in vivo; conditions: even at a high dose of 100 mg/kg; data not shown
ICR (CD-1) male mice = assay: Acetic acid-induced writhing test; type: in vivo; conditions: 10 mg/kg, i.p.; writhes in 20 min; mean ± SD, n = 6
Protocol: The writhing test was performed according to a previously reported method. The ICR (CD-1) male mice (weight: 22–25 g) were treated as for the formalin test in the same environment. The mice were divided into a vehicle group, a ralfinamide group, and test compound groups randomly, with six mice in each group. All compounds were dissolved in saline and administered by intraperitoneal injection at 10 mg/kg. The vehicle group was given the same volume of saline. After administration, the mice were placed into PVC chambers. Thirty minutes later, the mice were injected with 1% acetic acid solution at 10 mL/kg by intraperitoneal injection and placed into the observation chambers immediately to record the number of writhes each mouse had in 20 min. The results were presented as the mean ± standard deviation. The analytical method was the same as that for the formalin test, and the analgesic activity of each compound was calculated by the following formula. %Analgesia=Average Number (Vehicle)−Average Number (Drug)/Average Number (Vehicle)× 100%

hNav1.8 = target: T2, hNav1.8 (Homo sapiens, UniProt Q9Y5Y9); assay: Whole-cell patch clamp assay for hNav1.8 inhibition (CHO cells stably expressing hNav1.8); type: cell-based
T2 construct: expressed in transfected cells; host or cells: CHO
Protocol: The whole-cell patch clamp assay assessing the hNav1.8 current was carried out at room temperature with Chinese hamster ovary cells stably expressing hNav1.8. The holding voltage of the membrane was transferred to 0 mV from −120 mV for 50 ms and then restored to −50 mV for 8 s. After that, the membrane potential was renewed to −120 mV for 20 ms, which was followed by a depolarization to 0 mV for 50 ms. Finally, the potential was recovered to the holding voltage of −120 mV for 30 ms. This process was performed every 20 s. The compounds were administered when the voltage of hNav1.8 was stable. Every compound concentration was tested for 5 min, and all compounds were tested at several concentrations and with multiple cells.

ICR (CD−1) male mice [3] = assay: Formalin test (mouse, phase II paw licking); type: in vivo; remark: listed apart in the source
Protocol: The formalin test was carried out using the method described previously. During the formalin test, Institute of Cancer Research (ICR; CD−1) male mice (weight: 22–25 g) were acclimated to the environment for two days before the experiment with food and water available freely. The mice were housed under a 12 h/12 h light/dark cycle. The temperature and humidity of the room were kept at 25 ± 2 °C and 50–60%, respectively. The mice were divided into a vehicle group, a ralfinamide group, and test compound groups randomly, with eight mice in each group. All compounds were dissolved in saline and administered by intraperitoneal injection (n = 8) or intragastric administration by mouth (n = 8) at 10 mg/kg. The vehicle group was given the same volume of saline.
After administration, the mice were placed into polyvinyl chloride (PVC) observation chambers. Thirty minutes later, the mice were injected subcutaneously with 20 μL of 2.7% formalin solution into the surface of their right hind paw and were returned to their PVC chambers immediately to observe their behavior. The cumulative time each mouse licked its right hind paw during phase II (15–30 min) was recorded as its painful time in phase II. The analgesic effects of the compounds were presented as the mean ± standard deviation. The data were analyzed by SPSS using one-way analysis of variance followed by Dunnett’s test. The analgesic activity of the test compounds was calculated according to the following formula. %Analgesia=Average Time (Vehicle)−Average Time (Drug)/Average Time (Vehicle)× 100%

mouse [4] = assay: Mouse hotplate assay; type: in vivo; conditions: even at a high dose of 100 mg/kg; data not shown
hNav1.7 = target: T3, hNav1.7 (Homo sapiens, UniProt Q15858); assay: Whole-cell patch clamp assay for hNav1.7 inhibition (HEK293 cells stably expressing hNav1.7); type: cell-based; conditions: for inhibition at 10 µM: HEK293, TTX-sensitive Nav1.7 current, mean ± SD
T3 construct: expressed in transfected cells; host or cells: HEK293
Protocol: The compounds were tested as hNav1.7 peak current inhibitors at room temperature using human embryonic kidney 293 cells stably expressing hNav1.7. The holding voltage was depolarized to 0 mV from −120 mV for 20 ms and restored to −75 mV for 8 s. After that, the membrane potential was recovered to −120 mV for 20 ms and then depolarized to 0 mV for another 20 ms. Finally, the voltage was renewed to −120 mV for 30 ms. The potential was applied every 20 s. The compounds were administered when the voltage of hNav1.7 recorded by the whole-cell patch clamp was stable. Every compound concentration was tested for 5 min, and all compounds were tested at several concentrations and with multiple cells.

T3 sequence (Q15858 whole entry): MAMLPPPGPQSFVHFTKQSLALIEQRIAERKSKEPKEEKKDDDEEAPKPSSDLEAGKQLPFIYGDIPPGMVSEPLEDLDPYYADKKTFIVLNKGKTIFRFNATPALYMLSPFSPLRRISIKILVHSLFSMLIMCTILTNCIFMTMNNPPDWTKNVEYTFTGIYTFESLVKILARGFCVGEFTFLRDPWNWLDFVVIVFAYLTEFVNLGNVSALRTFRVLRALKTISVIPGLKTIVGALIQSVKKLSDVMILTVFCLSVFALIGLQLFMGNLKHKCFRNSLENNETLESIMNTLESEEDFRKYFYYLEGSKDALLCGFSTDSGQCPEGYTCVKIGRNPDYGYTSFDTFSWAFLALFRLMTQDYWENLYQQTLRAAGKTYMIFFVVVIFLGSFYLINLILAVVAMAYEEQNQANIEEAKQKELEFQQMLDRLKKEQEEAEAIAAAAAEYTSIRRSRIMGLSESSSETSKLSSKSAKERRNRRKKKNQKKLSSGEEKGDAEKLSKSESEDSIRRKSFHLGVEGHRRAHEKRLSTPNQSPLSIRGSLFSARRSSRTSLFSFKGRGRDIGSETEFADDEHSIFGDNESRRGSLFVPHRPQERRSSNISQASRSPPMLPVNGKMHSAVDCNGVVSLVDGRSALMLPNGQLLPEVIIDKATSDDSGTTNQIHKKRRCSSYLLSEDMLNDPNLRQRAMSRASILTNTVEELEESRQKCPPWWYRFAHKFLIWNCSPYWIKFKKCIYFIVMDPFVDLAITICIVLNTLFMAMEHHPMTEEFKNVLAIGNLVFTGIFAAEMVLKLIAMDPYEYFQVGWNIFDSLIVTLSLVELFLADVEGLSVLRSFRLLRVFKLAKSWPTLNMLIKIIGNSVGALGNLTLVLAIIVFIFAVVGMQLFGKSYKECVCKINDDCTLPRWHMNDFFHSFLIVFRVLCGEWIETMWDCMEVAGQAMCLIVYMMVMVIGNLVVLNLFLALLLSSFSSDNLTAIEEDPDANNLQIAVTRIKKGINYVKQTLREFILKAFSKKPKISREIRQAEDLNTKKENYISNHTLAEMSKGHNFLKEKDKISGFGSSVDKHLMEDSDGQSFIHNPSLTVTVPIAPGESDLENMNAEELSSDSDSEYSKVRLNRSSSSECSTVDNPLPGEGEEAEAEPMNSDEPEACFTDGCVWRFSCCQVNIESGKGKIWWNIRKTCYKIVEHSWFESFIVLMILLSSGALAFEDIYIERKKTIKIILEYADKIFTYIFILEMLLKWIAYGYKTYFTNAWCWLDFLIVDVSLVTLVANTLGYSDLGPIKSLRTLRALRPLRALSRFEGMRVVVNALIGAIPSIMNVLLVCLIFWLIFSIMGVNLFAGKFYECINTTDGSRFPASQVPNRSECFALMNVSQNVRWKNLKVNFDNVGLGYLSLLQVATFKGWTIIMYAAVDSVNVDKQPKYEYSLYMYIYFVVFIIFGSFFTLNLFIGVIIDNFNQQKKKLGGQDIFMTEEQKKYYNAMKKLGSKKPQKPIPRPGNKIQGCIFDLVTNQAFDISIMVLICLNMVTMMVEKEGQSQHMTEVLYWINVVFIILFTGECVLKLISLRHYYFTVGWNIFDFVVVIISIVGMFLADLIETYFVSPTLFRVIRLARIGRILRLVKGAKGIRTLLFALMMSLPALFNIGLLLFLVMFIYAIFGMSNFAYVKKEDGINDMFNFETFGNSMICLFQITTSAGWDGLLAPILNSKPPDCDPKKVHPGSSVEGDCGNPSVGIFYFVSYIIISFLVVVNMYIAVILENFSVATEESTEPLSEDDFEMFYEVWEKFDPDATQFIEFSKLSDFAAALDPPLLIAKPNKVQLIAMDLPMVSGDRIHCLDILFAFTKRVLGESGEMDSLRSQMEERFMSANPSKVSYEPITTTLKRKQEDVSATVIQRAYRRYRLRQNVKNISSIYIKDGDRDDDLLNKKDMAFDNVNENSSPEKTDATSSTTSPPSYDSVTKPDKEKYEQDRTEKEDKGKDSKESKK
T2 sequence (Q9Y5Y9 whole entry): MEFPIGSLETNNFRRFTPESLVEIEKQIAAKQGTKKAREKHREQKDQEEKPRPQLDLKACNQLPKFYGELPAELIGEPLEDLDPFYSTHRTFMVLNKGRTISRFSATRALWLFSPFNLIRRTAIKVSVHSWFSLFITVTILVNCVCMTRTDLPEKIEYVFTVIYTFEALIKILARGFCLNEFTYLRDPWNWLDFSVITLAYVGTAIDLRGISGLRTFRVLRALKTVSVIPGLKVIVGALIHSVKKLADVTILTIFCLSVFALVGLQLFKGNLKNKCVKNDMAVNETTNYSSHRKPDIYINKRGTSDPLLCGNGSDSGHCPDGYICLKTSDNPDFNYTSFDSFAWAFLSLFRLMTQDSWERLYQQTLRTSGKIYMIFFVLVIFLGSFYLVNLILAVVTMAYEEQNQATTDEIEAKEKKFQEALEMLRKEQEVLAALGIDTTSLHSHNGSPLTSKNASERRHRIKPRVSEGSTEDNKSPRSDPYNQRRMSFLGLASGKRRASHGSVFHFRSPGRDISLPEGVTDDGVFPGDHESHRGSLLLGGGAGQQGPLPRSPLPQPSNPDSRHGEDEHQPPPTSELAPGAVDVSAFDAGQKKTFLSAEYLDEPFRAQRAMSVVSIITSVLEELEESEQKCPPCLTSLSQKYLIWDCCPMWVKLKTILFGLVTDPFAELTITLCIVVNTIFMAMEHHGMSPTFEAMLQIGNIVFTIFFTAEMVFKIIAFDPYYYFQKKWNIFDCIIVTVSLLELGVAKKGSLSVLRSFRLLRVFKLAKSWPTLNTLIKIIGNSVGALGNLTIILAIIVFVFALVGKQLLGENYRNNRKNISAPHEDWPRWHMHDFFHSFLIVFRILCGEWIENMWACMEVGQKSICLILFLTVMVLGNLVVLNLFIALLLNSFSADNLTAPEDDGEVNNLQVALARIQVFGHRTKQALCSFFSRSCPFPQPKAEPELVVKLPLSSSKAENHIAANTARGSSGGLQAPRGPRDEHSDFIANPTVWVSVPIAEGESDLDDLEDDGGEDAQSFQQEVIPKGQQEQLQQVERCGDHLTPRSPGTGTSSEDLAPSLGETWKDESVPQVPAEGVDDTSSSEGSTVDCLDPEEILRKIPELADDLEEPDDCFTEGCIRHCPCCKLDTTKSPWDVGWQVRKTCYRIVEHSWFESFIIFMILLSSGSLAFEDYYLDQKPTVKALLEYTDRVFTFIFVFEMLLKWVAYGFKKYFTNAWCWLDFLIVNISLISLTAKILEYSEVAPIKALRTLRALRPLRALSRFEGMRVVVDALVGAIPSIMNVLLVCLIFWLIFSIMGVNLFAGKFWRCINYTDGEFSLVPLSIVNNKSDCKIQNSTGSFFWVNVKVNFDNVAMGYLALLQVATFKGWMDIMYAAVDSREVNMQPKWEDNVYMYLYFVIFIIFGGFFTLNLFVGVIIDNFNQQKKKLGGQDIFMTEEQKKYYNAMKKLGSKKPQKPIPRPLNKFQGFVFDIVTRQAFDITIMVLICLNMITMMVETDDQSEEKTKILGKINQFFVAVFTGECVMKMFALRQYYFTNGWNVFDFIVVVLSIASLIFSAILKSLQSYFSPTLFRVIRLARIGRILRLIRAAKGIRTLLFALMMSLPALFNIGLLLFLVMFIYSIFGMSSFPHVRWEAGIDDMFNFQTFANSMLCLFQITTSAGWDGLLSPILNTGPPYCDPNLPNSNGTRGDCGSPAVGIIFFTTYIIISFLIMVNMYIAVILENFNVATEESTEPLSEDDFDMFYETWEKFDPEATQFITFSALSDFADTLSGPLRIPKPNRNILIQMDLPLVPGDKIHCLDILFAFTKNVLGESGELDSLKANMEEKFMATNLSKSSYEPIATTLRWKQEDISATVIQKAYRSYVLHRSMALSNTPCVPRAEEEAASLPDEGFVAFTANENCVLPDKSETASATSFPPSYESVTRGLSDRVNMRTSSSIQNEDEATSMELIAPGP

With `C[C@H](NCc1cccc(COc2cccc3occc23)c1)C(N)=O` [Compound 6a, (S)-2-((3-((Benzofuran-4-yloxy)methyl)benzyl)amino)propanamide] the inhibition at 10 µM (hNav1.5; HEK293, 10 µM, read-out: Inhibitory Effect to Nav1.5) was 66.8 ± 1.5%, the “Inhibitory activity against Nav1.5 (in words)” value (hNav1.5; similarly to ralfinamide, low selectivity over the cardiac sodium channel) was “moderate inhibitory activity” and the “Analgesic response (formalin test)” value (ICR (CD−1) male mice [1]; 5 mg/kg, intraperitoneal injection, dose-effect relationship assay) was 69.6%. For the same compound, the “Dose dependence of analgesic activity (in words)” value (ICR (CD−1) male mice [1]; formalin test, 2.5 mg/kg, 5 mg/kg and 10 mg/kg by intraperitoneal injection) was “dose-dependent activity”, the “Analgesic effect in tail flick assay (in words)” value (mouse [2]) was “no analgesic effect” and the “% Analgesia (acetic acid-induced writhing test)” value (ICR (CD-1) male mice) was 49.7 ± 11.3 ^☆ %. For the same compound, the IC50 (hNav1.8; Nav1.8 inactivated state Na+ currents) was 4.3 ± 0.5 µM, the “Potency against Nav1.8 compared to ralfinamide (in words)” value (hNav1.8; ratio of IC50 values, Table 5) was “nearly nine-fold more potent” and the “% Analgesia (formalin test)” value (ICR (CD−1) male mice [3]; 10 mg/kg, i.p., phase II (15–30 min), mean ± SD, n = 8) was 84.0 ± 16.2 ^☆ * %. For the same compound, the inhibition in vivo at 10 mg/kg (ICR (CD−1) male mice [3]; Mus musculus, ip, 10 mg/kg, i.p., phase II (15–30 min), mean ± SD, n = 8, read-out: % Analgesia (formalin test)) was 84%, the “Percentage of analgesia relative to ralfinamide (times higher)” value (ICR (CD−1) male mice [3]; formalin test, 10 mg/kg) was 1.5–2 times and the “Analgesic activity after intragastric administration by mouth (in words)” value (ICR (CD−1) male mice [3]; formalin test, oral administration assay, compared to ralfinamide) was “higher analgesic activity than ralfinamide”. For the same compound, the “Analgesic effect in mouse hotplate assay (in words)” value (mouse [4]) was “no analgesic effect”, the inhibition at 10 µM (hNav1.7; read-out: Inhibitory Effect against Nav1.7, Activated State (TP−1)) was 15.6 ± 0.8% and the inhibition at 10 µM (hNav1.7; read-out: Inhibitory Effect against Nav1.7, Inactivated State (TP−2)) was 61.8 ± 0.2%. For the same compound, the IC50 (hNav1.7; Table 4, TTX-sensitive inactivated Nav1.7 current) was 2.3 ± 0.2 µM and the “Nav1.7 IC50 compared to ralfinamide (in words)” value (hNav1.7; ratio of IC50 values, Table 4) was “three times lower”.
